Assay results reported in patent publication US4797415A, “Benzofuran derivatives and use thereof for treating hyperuricemia” (Kotobuki Seiyaku Company Limited, priority 1982, dated 1989).
Read-outs that look alike come from different tables or passages of the source.

System: phenol red retention in circulation
Assay: Uricosuric activity by phenol red retention test in mice
Format: in vivo, male mice
Conditions: mice, 30 min before 75 mg/kg phenol red, blood 60 min after phenol red; for response vs control in vivo at 200 mg/kg: Mus musculus, 1 h
Method: Blood samples were collected from the retro-orbital plexus into heparinized capillary tubes 60 minutes after the phenol red injection. The retention of phenol red in circulation was determined according to the method described in J. Med. Pharmaceu.
Benzobromarone was administered subcutaneously to mice in an amount of 200 mg./kg. as a control or standard.

[1] = po, p.o. 200 mg/kg, read-out: phenol red retention, percentage by comparison with the control group, P.O. (200 mg/kg)
[2] = sc, s.c. 200 mg/kg, read-out: phenol red retention, percentage by comparison with the control group, S.C. (200 mg/kg)

| Structure (SMILES) | response vs control in vivo at 200 mg/kg [1] | response vs control in vivo at 200 mg/kg [2] | phenol red retention, percentage by comparison with the control group, S.C. (given at a dose of 100 mg/kg) (s.c. 100 mg/kg (footnote *)) |
| --- | --- | --- | --- |
| CCc1oc2ccccc2c1C(=O)c1cc(C)c(OCc2nnn[nH]2)cc1C [Compound 47, 5-[2,5-dimethyl-4-(2-ethyl-3-benzofuroyl)phenoxymethyl]tetrazole] | 232 ± 28% |  |  |
| CCc1oc2ccccc2c1C(=O)c1ccc(OCc2nnn[nH]2)cc1 [Compound 43, 5-[4-(2-ethyl-3-benzofuroyl)phenoxymethyl]tetrazole] | 430 ± 80% |  |  |
| CCOC(=O)COc1ccc(C(=O)c2c(CC)oc3ccccc23)cc1Cl [Compound 20, Ethyl 2-chloro-4-(2-ethyl-3-benzofuroyl)phenoxyacetate] |  | 128 ± 16.7% |  |
| CCc1oc2ccccc2c1C(=O)c1cc(C)c(OCc2nnn[nH]2)c(C)c1 [Compound 48, 5-[2,6-dimethyl-4-(2-ethyl-3-benzofuroyl)phenoxymethyl]tetrazole] | 296 ± 56% |  |  |
| CCc1oc2ccccc2c1C(=O)c1cc(C)c(O)c(C)c1 [Compound 40, 2-ethyl-3-(3,5-dimethyl-4-hydroxybenzoyl)benzofuran] | 183 ± 22.2% |  |  |
| CCc1oc2ccccc2c1C(=O)c1ccc(O)c(C)c1C [Compound 32, 2-ethyl-3-(2,3-dimethyl-4-hydroxybenzoyl)benzofuran] | 112 ± 18.8% |  |  |
| C=C(CC(=O)c1c(CC)oc2ccccc12)C(=O)O [Compound 21, 2-methylene-4-oxo-4-(2-ethyl-3-benzofuranyl)butyric acid] | 165 ± 21.7% | 100 ± 13.6% |  |
| Cc1oc2ccccc2c1C(=O)c1ccc(OCC(=O)O)cc1 [Compound 18, 4-(2-methyl-3-benzofuroyl)phenoxyacetic acid] | 135 ± 40% | 112 ± 15.4% |  |
| CCOC(=O)COc1ccc(C(=O)c2c(CC)oc3ccccc23)cc1[N+](=O)[O-] [Compound 27, Ethyl 2-nitro-4-(2-ethyl-3-benzofuroyl)phenoxyacetate] |  | 111 ± 11.1% |  |
| CCc1oc2ccccc2c1C(=O)c1ccc(OCC(=O)OC)cc1 [Compound 11, Methyl 4-(2-ethyl-3-benzofuroyl)phenoxyacetate] |  | 114 ± 9.5% |  |
| CCc1oc2ccccc2c1C(=O)c1ccc(O)c(C)c1 [Compound 23, 2-ethyl-3-benzofuranyl 3-methyl-4-hydroxyphenyl ketone] |  | 81 ± 14.3% |  |
| CCc1sc2ccccc2c1C(=O)c1ccc(O)cc1 [Compound 29, 2-ethyl-3-(4-hydroxybenzoyl)thianaphthene] |  | 100 ± 21.4% |  |
| CCc1oc2ccccc2c1C(=O)c1ccc(OCC(N)=O)cc1 [Compound 7, 4-(2-ethyl-3-benzofuroyl)phenoxyacetamide] | 104 ± 8.3% | 123 ± 23.1% |  |
| CCc1oc2ccccc2c1C(=O)c1ccc(OCC(=O)NCC(N)=O)cc1 [Compound 10, 4-(2-ethyl-3-benzofuroyl)phenoxyacetoglycinamide] | 132 ± 26.3% | 123 ± 23.1% |  |
| CCc1oc2ccccc2c1C(=O)c1ccc(OC(C)C(=O)O)cc1 (centres unmarked) [Compound 5, 4-(2-ethyl-3-benzofuroyl)phenoxy-2-methylacetic acid] | 176 ± 17.6% | 158 ± 15.1% |  |
| CCc1oc2ccccc2c1C(=O)c1ccc(O)c(Cl)c1 [Compound 19, 2-ethyl-3-benzofuranyl 3-chloro-4-hydroxyphenyl ketone] |  | 105 ± 19% |  |
| CCCCOC(=O)COc1ccc(C(OCCCC)c2c(CC)oc3ccccc23)cc1 (centres unmarked) [Compound 15, Butyl 4-(2-ethyl-3-butoxymethylbenzofuranyl)phenoxyacetate] | 175 ± 35% | 165 ± 34.6% |  |

| Structure (SMILES) | response vs control in vivo at 200 mg/kg [1] | response vs control in vivo at 200 mg/kg [2] | phenol red retention, percentage by comparison with the control group, S.C. (given at a dose of 100 mg/kg) (s.c. 100 mg/kg (footnote *)) |
| --- | --- | --- | --- |
| CCc1oc2ccccc2c1C(=O)c1ccc(OCc2nnn[nH]2)c(C)c1C [Compound 46, 5-[2,3-dimethyl-4-(2-ethyl-3-benzofuroyl)phenoxymethyl]tetrazole] | 240 ± 64% |  |  |
| CCOC(=O)COc1c(C)cc(C(=O)c2c(CC)oc3ccccc23)cc1C [Compound 41, Ethyl 2,6-dimethyl-4-(2-ethyl-3-benzofuroyl)phenoxyacetate] | 183 ± 27.8% |  |  |
| CCc1oc2ccccc2c1C(=O)c1ccc(OCC(=O)NO)cc1 [Compound 8, 4-(2-ethyl-3-benzofuroyl)phenoxyacetohydroxamide] | 129 ± 17.6% | 167 ± 26.6% |  |
| CCc1oc2ccccc2c1C(=O)c1ccc(OCC(=O)NCC(=O)OC)cc1 [Compound 9, Methyl 4-(2-ethyl-3-benzofuroyl)phenoxyacetoglycinate] | 153 ± 15.8% | 125 ± 18.8% |  |
| CCOC(=O)COc1ccc(C(=O)c2c(CC)oc3ccccc23)cc1C [Compound 24, Ethyl 2-methyl-4-(2-ethyl-3-benzofuroyl)phenoxyacetate] |  | 172 ± 27.7% |  |
| CCc1oc2ccccc2c1C(=O)c1ccc(OCCC(=O)O)cc1 [Compound 4, 4-(2-ethyl-3-benzofuroyl)phenoxypropionic acid] |  | 143 ± 19% |  |
| CCc1oc2ccccc2c1C(O)c1ccc(O)cc1 (centres unmarked) [Compound 12, (2-ethyl-3-benzofuranyl)-4-hydroxyphenylmethanol] |  | 100 ± 21.4% |  |
| CCc1oc2ccccc2c1C(=O)c1ccc(O)c([N+](=O)[O-])c1 [Compound 26, 2-ethyl-3-benzofuranyl 3-nitro-4-hydroxyphenyl ketone] |  |  | 222.2 ± 27.7% |
| CCc1oc2ccccc2c1C(=O)c1ccc(OCc2nnn[nH]2)c(C)c1 [Compound 45, 5-[2-methyl-4-(2-ethyl-3-benzofuroyl)phenoxymethyl]tetrazole] | 218 ± 21.4% |  |  |
| CCOC(=O)COc1ccc(C(=O)c2c(CC)sc3ccccc23)cc1 [Compound 30, Ethyl 4-(2-ethyl-3-benzothenoyl)phenoxyacetate] |  | 85.7 ± 14.3% |  |
| CCc1oc2ccccc2c1C(=O)c1ccc(OCc2nnn[nH]2)c(Cl)c1 [Compound 44, 5-[2-chloro-4-(2-ethyl-3-benzofuroyl)phenoxymethyl]tetrazole] | 175 ± 17.9% |  |  |
| CCOC(=O)COc1ccc(C(=O)c2c(CC)oc3ccccc23)cc1 [Compound 6, Ethyl 4-(2-ethyl-3-benzofuroyl)phenoxyacetate] | 119 ± 2.3% | 207 ± 32.5% |  |
| CCOC(=O)COc1cc(C)c(C(=O)c2c(CC)oc3ccccc23)cc1C [Compound 38, Ethyl 2,5-dimethyl-4-(2-ethyl-3-benzofuroyl)phenoxyacetate] | 324 ± 19% |  |  |
| CCc1oc2ccccc2c1C(=O)c1cccc(OCC(=O)O)c1 [Compound 2, 3-(2-ethyl-3-benzofuroyl)phenoxyacetic acid] |  | 180 ± 15.4% |  |
| CCc1oc2ccccc2c1C(=O)c1ccccc1OCC(=O)O [Compound 1, 2-(2-ethyl-3-benzofuroyl)phenoxyacetic acid] |  | 152 ± 15.2% |  |
| CCOC(=O)COc1ccc(C(=O)c2c(C)oc3ccccc23)cc1 [Compound 17, Ethyl 4-(2-methyl-3-benzofuroyl)phenoxyacetate] | 105 ± 10% | 115 ± 19.2% |  |
| CCc1oc2ccccc2c1C(=O)c1ccc(OCC(=O)OC)c(C)c1C [Compound 33, Methyl 2,3-dimethyl-4-(2-ethyl-3-benzofuroyl)phenoxyacetate] | 133 ± 15.6% |  |  |
